Read-outs that look alike come from different tables or passages of the source.
What was measured:
HIV-1 [1] = system: HIV-1
Protocol: Infectivity tests were carried out as follows: an HIV-1 suspension containing 10^2 infectious units was absorbed on to 5×10^6 H9 cells in a volume of 1 ml for 2 hours at 4° C. After this time, 9 ml of tissue culture medium with the required inhibitor concentration was added. The medium was exchanged with fresh medium plus inhibitor daily. Two control cultures were also prepared, one without inhibitor to determine the normal virus replication rate, the other containing inhibitor but no virus, to determine whether the substances were cytotoxic for H9 cells. […] The amount of virus antigen produced by the infected cells was measured daily using Elisa for eight days, indicating the amount of HIV-1 antigen in the tissue culture medium. After this, the cells were pelleted, washed in medium without inhibitor, and further incubated in inhibitor-less medium. The antigen production was measured on days 9 and 12 (ie 1 and 3 days after removal of the inhibitor). Virus production was also measured on days 7, 8, 9, and 12 by determining the amount of reverse transcriptase in the supernatant of the cell medium.

HIV-1 [2] = conditions: H9 cells
Protocol: Compounds (a), (b), (c), (d) were tested in the molarity range from 0.1 μM to 1000 μM. Infectivity tests were carried out as follows: an HIV-1 suspension containing 10^2 infectious units was absorbed on to 5×10^6 H9 cells in a volume of 1 ml for 2 hours at 4° C. After this time, 9 ml of tissue culture medium with the required inhibitor concentration was added. The medium was exchanged with fresh medium plus inhibitor daily. Two control cultures were also prepared, one without inhibitor to determine the normal virus replication rate, the other containing inhibitor but no virus, to determine whether the substances were cytotoxic for H9 cells. […] The amount of virus antigen produced by the infected cells was measured daily using Elisa for eight days, indicating the amount of HIV-1 antigen in the tissue culture medium. After this, the cells were pelleted, washed in medium without inhibitor, and further incubated in inhibitor-less medium. The antigen production was measured on days 9 and 12 (ie 1 and […] after removal of the inhibitor). Virus production was also measured on days 7, 8, 9, and 12 by determining the amount of reverse transcriptase in the supernatant of the cell medium.

[3] = 0,1 μM, day 9 post infection, no inhibitor (after removal)
[4] = 0,1 μM, day 12 post infection, no inhibitor (after removal)
[5] = 1 μM, day 9 post infection, no inhibitor (after removal)
[6] = 1 μM, day 12 post infection, no inhibitor (after removal)
[7] = 10 μM, day 9 post infection, no inhibitor (after removal)
[8] = 10 μM, day 12 post infection, no inhibitor (after removal)
[9] = 100 μM, day 9 post infection, no inhibitor (after removal)
[10] = 100 μM, day 12 post infection, no inhibitor (after removal)
[11] = 1000 μM, day 9 post infection, no inhibitor (after removal)
[12] = 1000 μM, day 12 post infection, no inhibitor (after removal)

## CC(C)C[C@H](NC(=O)OC(C)(C)C)C(=O)NCC(O)CC(=O)O (stereo partly drawn) [B, t-BOC-L-Leu-NH--CH2 --CHOH--CH2 --COOH]
HIV-1 [1]; 0,1 μM, day 7 post infection
  Reverse Transkriptase Determination: 2099 epm/ml
HIV-1 [1]; 0,1 μM, day 8 post infection
  Reverse Transkriptase Determination: 3091 epm/ml
HIV-1 [1]; [3]
  Reverse Transkriptase Determination: 6180 epm/ml
HIV-1 [1]; [4]
  Reverse Transkriptase Determination: 106830 epm/ml
HIV-1 [1]; 1 μM, day 7 post infection
  Reverse Transkriptase Determination: 6105 epm/ml
HIV-1 [1]; 1 μM, day 8 post infection
  Reverse Transkriptase Determination: 3006 epm/ml
HIV-1 [1]; [5]
  Reverse Transkriptase Determination: 8474 epm/ml
HIV-1 [1]; [6]
  Reverse Transkriptase Determination: 92020 epm/ml
HIV-1 [1]; 10 μM, day 7 post infection
  Reverse Transkriptase Determination: 4614 epm/ml
HIV-1 [1]; 10 μM, day 8 post infection
  Reverse Transkriptase Determination: 4188 epm/ml
HIV-1 [1]; [7]
  Reverse Transkriptase Determination: 7187 epm/ml
HIV-1 [1]; [8]
  Reverse Transkriptase Determination: 164920 epm/ml
HIV-1 [1]; 100 μM, day 7 post infection
  Reverse Transkriptase Determination: 4033 epm/ml
HIV-1 [1]; 100 μM, day 8 post infection
  Reverse Transkriptase Determination: 4418 epm/ml
HIV-1 [1]; [9]
  Reverse Transkriptase Determination: 6575 epm/ml
HIV-1 [1]; [10]
  Reverse Transkriptase Determination: 125290 epm/ml
HIV-1 [1]; 1000 μM, day 7 post infection
  Reverse Transkriptase Determination: 3441 epm/ml
HIV-1 [1]; 1000 μM, day 8 post infection
  Reverse Transkriptase Determination: 3159 epm/ml
HIV-1 [1]; [11]
  Reverse Transkriptase Determination: 5503 epm/ml
HIV-1 [1]; [12]
  Reverse Transkriptase Determination: 149020 epm/ml
HIV-1 [2]; 0,1 μM, day 1 post infection
  HIV-1 antigen production as measured in antigen capture ELISA: 0,061 o. D.
HIV-1 [2]; 0,1 μM, day 2 post infection
  HIV-1 antigen production as measured in antigen capture ELISA: 0,063 o. D.
HIV-1 [2]; 0,1 μM, day 3 post infection
  HIV-1 antigen production as measured in antigen capture ELISA: 0,039 o. D.
HIV-1 [2]; 0,1 μM, day 4 post infection
  HIV-1 antigen production as measured in antigen capture ELISA: 0,063 o. D.
HIV-1 [2]; 0,1 μM, day 5 post infection
  HIV-1 antigen production as measured in antigen capture ELISA: 0,055 o. D.
HIV-1 [2]; 0,1 μM, day 6 post infection
  HIV-1 antigen production as measured in antigen capture ELISA: 0,149 o. D.
HIV-1 [2]; 0,1 μM, day 7 post infection
  HIV-1 antigen production as measured in antigen capture ELISA: 0,389 o. D.
HIV-1 [2]; 0,1 μM, day 8 post infection
  HIV-1 antigen production as measured in antigen capture ELISA: 0,232 o. D.
HIV-1 [2]; [3]
  HIV-1 antigen production as measured in antigen capture ELISA: 0,700 o. D.
HIV-1 [2]; [4]
  HIV-1 antigen production as measured in antigen capture ELISA: 1,047 o. D.
HIV-1 [2]; 1 μM, day 1 post infection
  HIV-1 antigen production as measured in antigen capture ELISA: 0,063 o. D.
HIV-1 [2]; 1 μM, day 2 post infection
  HIV-1 antigen production as measured in antigen capture ELISA: 0,060 o. D.
HIV-1 [2]; 1 μM, day 3 post infection
  HIV-1 antigen production as measured in antigen capture ELISA: 0,061 o. D.
HIV-1 [2]; 1 μM, day 4 post infection
  HIV-1 antigen production as measured in antigen capture ELISA: 0,050 o. D.
HIV-1 [2]; 1 μM, day 5 post infection
  HIV-1 antigen production as measured in antigen capture ELISA: 0,052 o. D.
HIV-1 [2]; 1 μM, day 6 post infection
  HIV-1 antigen production as measured in antigen capture ELISA: 0,105 o. D.
HIV-1 [2]; 1 μM, day 7 post infection
  HIV-1 antigen production as measured in antigen capture ELISA: 0,186 o. D.
HIV-1 [2]; 1 μM, day 8 post infection
  HIV-1 antigen production as measured in antigen capture ELISA: 0,237 o. D.
HIV-1 [2]; [5]
  HIV-1 antigen production as measured in antigen capture ELISA: 0,745 o. D.
HIV-1 [2]; [6]
  HIV-1 antigen production as measured in antigen capture ELISA: 0,970 o. D.
HIV-1 [2]; 10 μM, day 1 post infection
  HIV-1 antigen production as measured in antigen capture ELISA: 0,063 o. D.
HIV-1 [2]; 10 μM, day 2 post infection
  HIV-1 antigen production as measured in antigen capture ELISA: 0,060 o. D.
HIV-1 [2]; 10 μM, day 3 post infection
  HIV-1 antigen production as measured in antigen capture ELISA: 0,059 o. D.
HIV-1 [2]; 10 μM, day 4 post infection
  HIV-1 antigen production as measured in antigen capture ELISA: 0,047 o. D.
HIV-1 [2]; 10 μM, day 5 post infection
  HIV-1 antigen production as measured in antigen capture ELISA: 0,055 o. D.
HIV-1 [2]; 10 μM, day 6 post infection
  HIV-1 antigen production as measured in antigen capture ELISA: 0,087 o. D.
HIV-1 [2]; 10 μM, day 7 post infection
  HIV-1 antigen production as measured in antigen capture ELISA: 0,303 o. D.
HIV-1 [2]; 10 μM, day 8 post infection
  HIV-1 antigen production as measured in antigen capture ELISA: 0,342 o. D.
HIV-1 [2]; [7]
  HIV-1 antigen production as measured in antigen capture ELISA: 0,645 o. D.
HIV-1 [2]; [8]
  HIV-1 antigen production as measured in antigen capture ELISA: 1,038 o. D.
HIV-1 [2]; 100 μM, day 1 post infection
  HIV-1 antigen production as measured in antigen capture ELISA: 0,068 o. D.
HIV-1 [2]; 100 μM, day 2 post infection
  HIV-1 antigen production as measured in antigen capture ELISA: 0,070 o. D.
HIV-1 [2]; 100 μM, day 3 post infection
  HIV-1 antigen production as measured in antigen capture ELISA: 0,063 o. D.
HIV-1 [2]; 100 μM, day 4 post infection
  HIV-1 antigen production as measured in antigen capture ELISA: 0,052 o. D.
HIV-1 [2]; 100 μM, day 5 post infection
  HIV-1 antigen production as measured in antigen capture ELISA: 0,052 o. D.
HIV-1 [2]; 100 μM, day 6 post infection
  HIV-1 antigen production as measured in antigen capture ELISA: 0,099 o. D.
HIV-1 [2]; 100 μM, day 7 post infection
  HIV-1 antigen production as measured in antigen capture ELISA: 0,359 o. D.
HIV-1 [2]; 100 μM, day 8 post infection
  HIV-1 antigen production as measured in antigen capture ELISA: 0,260 o. D.
HIV-1 [2]; [9]
  HIV-1 antigen production as measured in antigen capture ELISA: 0,890 o. D.
HIV-1 [2]; [10]
  HIV-1 antigen production as measured in antigen capture ELISA: 0,960 o. D.
HIV-1 [2]; 1000 μM, day 1 post infection
  HIV-1 antigen production as measured in antigen capture ELISA: 0,076 o. D.
HIV-1 [2]; 1000 μM, day 2 post infection
  HIV-1 antigen production as measured in antigen capture ELISA: 0,068 o. D.
HIV-1 [2]; 1000 μM, day 3 post infection
  HIV-1 antigen production as measured in antigen capture ELISA: 0,050 o. D.
HIV-1 [2]; 1000 μM, day 4 post infection
  HIV-1 antigen production as measured in antigen capture ELISA: 0,050 o. D.
HIV-1 [2]; 1000 μM, day 5 post infection
  HIV-1 antigen production as measured in antigen capture ELISA: 0,063 o. D.
HIV-1 [2]; 1000 μM, day 6 post infection
  HIV-1 antigen production as measured in antigen capture ELISA: 0,075 o. D.
HIV-1 [2]; 1000 μM, day 7 post infection
  HIV-1 antigen production as measured in antigen capture ELISA: 0,279 o. D.
HIV-1 [2]; 1000 μM, day 8 post infection
  HIV-1 antigen production as measured in antigen capture ELISA: 0,577 o. D.
HIV-1 [2]; [11]
  HIV-1 antigen production as measured in antigen capture ELISA: 0,811 o. D.
HIV-1 [2]; [12]
  HIV-1 antigen production as measured in antigen capture ELISA: 1,050 o. D.
